# According to patent US20240100062A1, “Methods of Treatment With an Iboga Alkaloid” (priority 2022, published 2024):
# “Also recorded” adds a separate entry of the source.
# Key:
# Assay type in all cases: in vivo, human
# [1] = test system: special operations veterans; assay: WHODAS 2.0 disability assessment, Example 1 study; details: for WHODAS 2.0 Self Care subscale, mean: baseline 5.2% ± 9.2%; for WHODAS 2.0 Mobility subscale, mean: baseline 14.7% ± 15.7%
# Description: (§1) With subjects in the fasting state, an intravenous infusion of 1 gram of magnesium sulfate was administered 1-2 hours prior to treatment. […] Medical staff (MD, RN, or EMT) were onsite at a ratio of at least 1 staff per 2 patients throughout treatment for monitoring and management, but no specific coaching or psychological support was provided during treatment.
# (§2) Post treatment, each subject was assessed four days after treatment, one month after treatment, and, if willing, one year after treatment. The post-treatment assessments conducted at four days and at one month after treatment included neuropsychological testing, measures of PTSD, depression, anxiety, mystical experiences, functional imaging and EEG. Post-treatment assessments conducted at one year after treatment included PTSD, depression, and anxiety measures.
# World Health Organization Disability Assessment Scale 2.0 (WHODAS 2.0) was used as a measure of function. WHODAS was used to assess the impact of health conditions across six life domains (cognition, mobility, self-care, interpersonal, life activities, and community participation) and it is sensitive to change over time (Gold, L. H., J. Am. Acad. Psychiatry Law 42, 9 (2014). Each item in the assessment is rated on a scale ranging from no problems to extreme problems (Üstün, T. B. et al., Measuring health and disability: Manual for WHO disability assessment schedule WHODAS 2.0. (World Health Organization, 2010)). To capture inter-individual variability in disability the WHODAS complex scoring method was used. Raw scores were converted to a metric ranging from 0 (no disability) to 100 (full disability), by calculating the ratio of the participant's score relative to the maximum possible score in each domain as well as to the total score (Id.). A score of 20%-39% was considered mild, 40%-59% was moderate, 60%-79% was moderate-severe and 80%-100% was severe. Scores from baseline were compared to scores from one-month post treatment.
# [2] = test system: special operations veterans; assay: Hopkins Verbal Learning Test-Revised (HVLT-R), Example 1 study
# [3] = test system: special operations veterans; assay: CAPS-5 clinician-administered PTSD scale, Example 1 study; details: for CAPS-5 score, mean: p(FDR) <0.001
# Description: as §1, §2
# Clinician administered scales included CAPS-5 (Clinician-administered PTSD Scale for DSM-5), which is a gold standard assessment of PTSD symptom severity; MADRS (Montgomery-Asberg Depression Rating Scale), a measure for depressive symptom severity; and Hamilton-Anxiety Rating Scale (HAM-A) (Shear, M. K. et al., Depress. Anxiety 13, 166-178 (2001)) a measure for anxiety symptom severity; SCID-5 (Structured Clinical Interview for DSM-5) Overview for a historical and environmental context of symptom presentation; MINI DSM-5 (Mini International Neuropsychiatric Interview from DSM-5) for a structured psychodiagnostics assessment; BAT-L (Boston Assessment of TBI—Lifetime) for a lifetime history of TBI and blast exposure; and Ohio State University TBI Identification Method (Short Form) for a lifetime history of TBI. MADRS testing provides an indication of depressive symptoms, CAPS-5 provides an indication of PTSD and SIGH-A provides an indication of anxiety. Collectively these overlap to provide indication of mood, concentration, sleep and tension.
# For the CAPS-5, the test version with a […] structured interview of PTSD symptoms over the past week was used, using a 0 (“Absent”) to 4 (“Extreme/Incapacitating”) scale, with possible total scores ranging from 0 to 80. The score range 23 to 34 is considered moderate PTSD while a higher score represents severe PTSD (Weathers, F. W. et al., Psychol. Assess. 30, 383-395 (2018)).
# [4] = test system: special operations veterans; assay: Safety monitoring (adverse events, QTc by ECG), Example 1 study
# Description: as §1
compound,measurement,setting,value
"CCC1CC2CC3c4[nH]c5ccc(OC)cc5c4CCN(C2)C13 (stereo not shown) [ibogaine, Ibogaine]","WHODAS 2.0 Mobility subscale, D",[1]; Baseline vs One-Month,0.83
same,"WHODAS 2.0 Self Care subscale, D",[1]; Baseline vs One-Month,0.51
same,"WHODAS 2.0 Cognition subscale, D",[1]; Baseline vs Post-Treatment,0.96
same,"WHODAS 2.0 Community Participation subscale, D",[1]; Baseline vs Post-Treatment,0.53
same,"WHODAS 2.0 Interpersonal subscale, D",[1]; Baseline vs Post-Treatment,0.60
same,"WHODAS 2.0 Life Activities subscale, D",[1]; Baseline vs Post-Treatment,0.48
same,"WHODAS 2.0 Mobility subscale, D",[1]; Baseline vs Post-Treatment,0.53
same,"WHODAS 2.0 Self Care subscale, D",[1]; Baseline vs Post-Treatment,0.37
same,"WHODAS 2.0 Self Care subscale, mean","[1]; One-Month, SD 2.9%, p(FDR) 0.009",1.0% ±
same,"WHODAS 2.0 Mobility subscale, mean","[1]; One-Month, SD 3.3%, p(FDR) <0.001",1.3% ±
same,"WHODAS 2.0 Cognition subscale, mean","[1]; One-Month, SD 7.9%, baseline 36.1% ± 14.6%, p(FDR) <0.001",5.0% ±
same,"WHODAS 2.0 Interpersonal subscale, mean","[1]; One-Month, SD 9.5%, baseline 32.3% ± 20.4, p(FDR) <0.001",4.8% ±
same,"WHODAS 2.0 Community Participation subscale, mean","[1]; One-Month, SD 13.1%, baseline 35.6% ± 21.1%, p(FDR) <0.001",5.9% ±
same,"WHODAS 2.0 Life Activities subscale, mean","[1]; One-Month, SD 16.2%, baseline 41.1% ± 24.8%, p(FDR) <0.001",9.1% ±
same,"WHODAS 2.0 Self Care subscale, mean","[1]; Post-Treatment, SD 4.7%, p(FDR) 0.028",1.9% ±
same,"WHODAS 2.0 Mobility subscale, mean","[1]; Post-Treatment, SD 13.5%, p(FDR) 0.001",7.2% ±
same,Functioning,[1]; immediately and one-month post-treatment,clinically and statistically significant improvements in functioning
same,"Verbal Memory (HVLT-R), mean ± SD","[2]; 1-wk post, baseline 47.4 ± 10.1, p(FDR) 0.583",49.0 ± 9.2 T score
same,"Verbal Memory (HVLT-R), D",[2]; baseline vs 1-month post,0.47
same,"Verbal Memory (HVLT-R), D",[2]; baseline vs 1-wk post,0.17
same,Verbal memory improvement,[2]; one-month follow-up,significant improvement
same,"CAPS-5 score, mean","[3]; 1-mo. post, SD 8.1, baseline 31.7 ± 13.0, N 28, only participants with mild TBI",4.8
same,"CAPS-5 score, mean","[3]; 1-mo. post, SD 8.7, baseline 35.7 ± 11.0, N 23, only participants meeting diagnostic criteria per MINI at baseline",6.0
same,"CAPS-5 % Reduction vs Baseline, mean","[3]; 1-mo. post, SD 17%, only participants with mild TBI",88% ±
same,"CAPS-5 % Reduction vs Baseline, mean","[3]; 1-mo. post, SD 19%, only participants meeting diagnostic criteria per MINI",86% ±
same,"CAPS-5 score, mean","[3]; 1-wk post, SD 5.2, baseline 35.7 ± 11.0, N 23, only participants meeting diagnostic criteria per MINI at baseline",4.4
same,"CAPS-5 score, mean","[3]; 1-wk. post, SD 4.5, baseline 31.7 ± 13.0, N 28, only participants with mild TBI",3.6
same,"CAPS-5 % Reduction vs Baseline, mean","[3]; 1-wk. post, SD 14%, only participants with mild TBI",89% ±
same,"CAPS-5 % Reduction vs Baseline, mean","[3]; 1-wk. post, SD 17%, only participants meeting diagnostic criteria per MINI",87% ±
same,Participants treated for insomnia,"[4]; 1 participant, during oneirogenic effects",3%
same,Participants treated for hypertension,"[4]; 2 participants, during oneirogenic effects",7%
same,Participants treated for anxiety,"[4]; 3 participants, during oneirogenic effects",10%
same,Participants treated for nausea,"[4]; 7 participants, during oneirogenic effects",23%
same,Participants treated for headache,"[4]; 12 participants, during oneirogenic effects",40%
same,Transient cerebellar signs such as mild ataxia and intention tremor,[4]; 30 participants,All participants experienced transient cerebellar signs
same,Unexpected or serious adverse events,"[4]; 30 participants, 12.1±1.2 mg/kg oral ibogaine with IV magnesium sulfate, 1.2 mg/kg",no unexpected or serious treatment-emergent side effects; also recorded: no unexpected or serious adverse events
same,QTc prolongation,[4]; continuous 5-lead ECG 12-16 hours after ibogaine,no instances of a concerning prolongation of QTc
